# From PubChem BioAssay (NCI)
#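 Five compound concentrations were applied to cells in 96-well plates for 48 hours; endpoints were derived by simple linear interpolation of the resulting dose-response curve. The concentration for full growth arrest is given as TGI.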
# Key:
# Assay in all cases: growth of human tumour cells (NCI), 48 h
# 786-0 renal = system: 786-0 renal
# A498 renal = system: A498 renal
# A549 NSCLC = system: A549 NSCLC
# ACHN renal = system: ACHN renal
# BT-549 breast = system: BT-549 breast
# CAKI-1 renal = system: CAKI-1 renal
# CCRF-CEM leukemia = system: CCRF-CEM leukemia
# COLO 205 colon = system: COLO 205 colon
# DU-145 prostate = system: DU-145 prostate
# EKVX NSCLC = system: EKVX NSCLC
# HCC-2998 colon = system: HCC-2998 colon
# HCT-116 colon = system: HCT-116 colon
# HCT-15 colon = system: HCT-15 colon
# HL-60(TB) leukemia = system: HL-60(TB) leukemia
# HOP-62 NSCLC = system: HOP-62 NSCLC
# HOP-92 NSCLC = system: HOP-92 NSCLC
# HS 578T breast = system: HS 578T breast
# HT29 colon = system: HT29 colon
# IGROV1 ovarian = system: IGROV1 ovarian
# K-562 leukemia = system: K-562 leukemia
# KM12 colon = system: KM12 colon
# LOX IMVI melanoma = system: LOX IMVI melanoma
# M14 melanoma = system: M14 melanoma
# MALME-3M melanoma = system: MALME-3M melanoma
# MCF7 breast = system: MCF7 breast
# MDA-MB-231 breast = system: MDA-MB-231 breast
# MDA-MB-435 = system: MDA-MB-435
# MDA-N = system: MDA-N
# MOLT-4 leukemia = system: MOLT-4 leukemia
# NCI-H226 lung = system: NCI-H226 lung
# NCI-H23 lung = system: NCI-H23 lung
# NCI-H460 lung = system: NCI-H460 lung
# NCI-H522 lung = system: NCI-H522 lung
# NCI/ADR-RES ovarian = system: NCI/ADR-RES ovarian
# OVCAR-3 ovarian = system: OVCAR-3 ovarian
# OVCAR-4 ovarian = system: OVCAR-4 ovarian
# OVCAR-5 ovarian = system: OVCAR-5 ovarian
# OVCAR-8 ovarian = system: OVCAR-8 ovarian
# PC-3 prostate = system: PC-3 prostate
# RPMI-8226 leukemia = system: RPMI-8226 leukemia
# RXF 393 renal = system: RXF 393 renal
# SF-268 CNS = system: SF-268 CNS
# SF-295 CNS = system: SF-295 CNS
# SK-MEL-2 melanoma = system: SK-MEL-2 melanoma
# SK-MEL-28 melanoma = system: SK-MEL-28 melanoma
# SK-MEL-5 melanoma = system: SK-MEL-5 melanoma
# SK-OV-3 ovarian = system: SK-OV-3 ovarian
# SN12C renal = system: SN12C renal
# SNB-19 CNS = system: SNB-19 CNS
# SNB-75 CNS = system: SNB-75 CNS
# SR leukemia = system: SR leukemia
# SW-620 colon = system: SW-620 colon
# T-47D breast = system: T-47D breast
# TK-10 renal = system: TK-10 renal
# U251 CNS = system: U251 CNS
# UACC-257 melanoma = system: UACC-257 melanoma
# UACC-62 melanoma = system: UACC-62 melanoma
# UO-31 renal = system: UO-31 renal
# SF-539 CNS = system: SF-539 CNS
smiles,measurement,setting,value
COc1ccc2c(c1)-c1c(c3cc(OC)ccc3n1CCCN(C)C)CC2,TGI,786-0 renal,> 100 µM
same,TGI,A498 renal,31.3 µM
same,TGI,A549 NSCLC,50.6 µM
same,TGI,ACHN renal,35.9 µM
same,TGI,BT-549 breast,32.2 µM
same,TGI,CAKI-1 renal,28.1 µM
same,TGI,CCRF-CEM leukemia,14.1 µM
same,TGI,COLO 205 colon,5.9 µM
same,TGI,DU-145 prostate,33.4 µM
same,TGI,EKVX NSCLC,31.4 µM
same,TGI,HCC-2998 colon,10.2 µM
same,TGI,HCT-116 colon,51.1 µM
same,TGI,HCT-15 colon,32.1 µM
same,TGI,HL-60(TB) leukemia,55.3 µM
same,TGI,HOP-62 NSCLC,29.2 µM
same,TGI,HOP-92 NSCLC,33.8 µM
same,TGI,HS 578T breast,20.5 µM
same,TGI,HT29 colon,13.9 µM
same,TGI,IGROV1 ovarian,> 36.2 µM
same,TGI,K-562 leukemia,13.2 µM
same,TGI,KM12 colon,21.8 µM
same,TGI,LOX IMVI melanoma,20.9 µM
same,TGI,M14 melanoma,4.8 µM
same,TGI,MALME-3M melanoma,5.47 µM
same,TGI,MCF7 breast,26.5 µM
same,TGI,MDA-MB-231 breast,30.5 µM
same,TGI,MDA-MB-435,15.1 µM
same,TGI,MDA-N,16 µM
same,TGI,MOLT-4 leukemia,30.9 µM
same,TGI,NCI-H226 lung,6.82 µM
same,TGI,NCI-H23 lung,37 µM
same,TGI,NCI-H460 lung,42.9 µM
same,TGI,NCI-H522 lung,25.7 µM
same,TGI,NCI/ADR-RES ovarian,31.4 µM
same,TGI,OVCAR-3 ovarian,29.6 µM
same,TGI,OVCAR-4 ovarian,30.8 µM
same,TGI,OVCAR-5 ovarian,28.4 µM
same,TGI,OVCAR-8 ovarian,30.7 µM
same,TGI,PC-3 prostate,25.3 µM
same,TGI,RPMI-8226 leukemia,26 µM
same,TGI,RXF 393 renal,20.2 µM
same,TGI,SF-268 CNS,26.2 µM
same,TGI,SF-295 CNS,16.8 µM
same,TGI,SK-MEL-2 melanoma,31 µM
same,TGI,SK-MEL-28 melanoma,13 µM
same,TGI,SK-MEL-5 melanoma,8.29 µM
same,TGI,SK-OV-3 ovarian,32.7 µM
same,TGI,SN12C renal,28.5 µM
same,TGI,SNB-19 CNS,34 µM
same,TGI,SNB-75 CNS,13.9 µM
same,TGI,SR leukemia,22.1 µM
same,TGI,SW-620 colon,32.1 µM
same,TGI,T-47D breast,24.8 µM
same,TGI,TK-10 renal,39.7 µM
same,TGI,U251 CNS,27 µM
same,TGI,UACC-257 melanoma,11.6 µM
same,TGI,UACC-62 melanoma,20.6 µM
same,TGI,UO-31 renal,26.7 µM
O=C1CSC(c2ccccc2)N1c1ccc(-n2c(-c3ccccc3)nc3ccccc3c2=O)cc1 (configuration not stated),TGI,786-0 renal,> 100 µM
same,TGI,A498 renal,> 100 µM
same,TGI,A549 NSCLC,> 100 µM
same,TGI,ACHN renal,> 100 µM
same,TGI,BT-549 breast,> 100 µM
same,TGI,CAKI-1 renal,> 100 µM
same,TGI,CCRF-CEM leukemia,> 100 µM
same,TGI,COLO 205 colon,> 100 µM
same,TGI,DU-145 prostate,> 100 µM
same,TGI,EKVX NSCLC,> 100 µM
same,TGI,HCC-2998 colon,> 100 µM
same,TGI,HCT-116 colon,> 100 µM
same,TGI,HCT-15 colon,> 100 µM
same,TGI,HL-60(TB) leukemia,> 100 µM
same,TGI,HOP-62 NSCLC,> 100 µM
same,TGI,HOP-92 NSCLC,> 100 µM
same,TGI,HS 578T breast,> 100 µM
same,TGI,HT29 colon,> 100 µM
same,TGI,IGROV1 ovarian,> 100 µM
same,TGI,K-562 leukemia,> 100 µM
same,TGI,KM12 colon,> 100 µM
same,TGI,LOX IMVI melanoma,> 100 µM
same,TGI,M14 melanoma,> 100 µM
same,TGI,MALME-3M melanoma,> 100 µM
same,TGI,MCF7 breast,> 100 µM
same,TGI,MDA-MB-231 breast,> 100 µM
same,TGI,MDA-MB-435,> 100 µM
same,TGI,MDA-N,> 100 µM
same,TGI,MOLT-4 leukemia,> 100 µM
same,TGI,NCI-H226 lung,> 100 µM
same,TGI,NCI-H23 lung,> 100 µM
same,TGI,NCI-H460 lung,> 100 µM
same,TGI,NCI-H522 lung,> 100 µM
same,TGI,NCI/ADR-RES ovarian,> 100 µM
same,TGI,OVCAR-3 ovarian,> 100 µM
same,TGI,OVCAR-4 ovarian,> 100 µM
same,TGI,OVCAR-5 ovarian,> 100 µM
same,TGI,OVCAR-8 ovarian,> 100 µM
same,TGI,PC-3 prostate,> 100 µM
same,TGI,RPMI-8226 leukemia,> 100 µM
same,TGI,RXF 393 renal,> 100 µM
same,TGI,SF-268 CNS,> 100 µM
same,TGI,SF-295 CNS,> 100 µM
same,TGI,SF-539 CNS,> 100 µM
same,TGI,SK-MEL-2 melanoma,> 100 µM
same,TGI,SK-MEL-28 melanoma,> 100 µM
same,TGI,SK-MEL-5 melanoma,> 100 µM
same,TGI,SK-OV-3 ovarian,> 100 µM
same,TGI,SN12C renal,> 100 µM
same,TGI,SNB-19 CNS,> 100 µM
same,TGI,SNB-75 CNS,> 100 µM
same,TGI,SR leukemia,> 100 µM
same,TGI,SW-620 colon,> 100 µM
same,TGI,T-47D breast,> 100 µM
same,TGI,TK-10 renal,> 100 µM
same,TGI,U251 CNS,> 100 µM
same,TGI,UACC-257 melanoma,> 100 µM
same,TGI,UACC-62 melanoma,> 100 µM
same,TGI,UO-31 renal,> 100 µM
